Source: publication PMC4820820, “CETSA screening identifies known and novel thymidylate synthase inhibitors and slow intracellular activation of 5-fluorouracil” (Nature Communications, 2016)

Target: T1, human thymidylate synthase (TS) (Homo sapiens, UniProt P04818)
T1 construct: screening in live, non-engineered cells expressing thymidylate synthase; endogenous in cells; host or cells: K562 (human myelogenous leukemia) cells
Experiment: ITDRF CETSA at 50 °C, AlphaScreen detection, live K562 cells
Assay type: cell-based
Conditions: 2 h preincubation, 50 °C, unit taken from curve axis log [cmp] (M), read-out: ITDRF CETSA (hit confirmation)
Protocol: For the […] experiments 11-point dose-response curves with three-fold difference in concentration between wells were generated using the Bravo liquid handling system (all serial dilutions were done in 100% DMSO). […] The concentration of DMSO was 0.5% in all samples. […] The assay ready plates were prepared as outlined above for the screen.
The screen procedure started with the addition of 5 μl of a suspension of K562 cells at a density of 10 million cells per ml to all wells of a 384 well hardshell PCR plate (HSR480, BIORAD) using an electronic multichannel pipette (Biohit). […] For the time-course experiments the incubation times were altered to include also 10 min, 30 min and 6 h. […] After the incubation step the plates were transiently heated at 50 °C for 3 min followed by a controlled cooling to 20 °C for 1 min using a real-time PCR machine (LightCycler480 system, Roche). Plate handling was then as described above for the thermal aggregation experiments. The data were analyzed using microsoft excel and GraphPad Prism 6.
A calculation of the average and standard error of means for each set of controls also allowed an illustration of how these responses varied over the 32 screening plates. The Z′ factor[38] is commonly used as a measure of how well the assay separates between the controls and this was calculated as described based on the calculated averages and standard deviations of the controls on a per plate basis. For the Tagg shift and the […] experiments the data were analyzed in GraphPad Prism using the Boltzmann sigmoid equation and the saturation binding curve (rectangular hyperbola; binding isotherm) function, respectively. As already discussed[14] these methods make use of equilibrium models for data analysis although the methodology depends on the irreversible aggregation of denatured material. For this reason we refer to the observed responses as apparent and isothermal dose-response fingerprints and are careful with any quantitative interpretations, being well aware of their dependency on experimental conditions. Experiments are on-going to address the quantitative interpretation of CETSA data.

T1 sequence (P04818 2-313 limits assumed): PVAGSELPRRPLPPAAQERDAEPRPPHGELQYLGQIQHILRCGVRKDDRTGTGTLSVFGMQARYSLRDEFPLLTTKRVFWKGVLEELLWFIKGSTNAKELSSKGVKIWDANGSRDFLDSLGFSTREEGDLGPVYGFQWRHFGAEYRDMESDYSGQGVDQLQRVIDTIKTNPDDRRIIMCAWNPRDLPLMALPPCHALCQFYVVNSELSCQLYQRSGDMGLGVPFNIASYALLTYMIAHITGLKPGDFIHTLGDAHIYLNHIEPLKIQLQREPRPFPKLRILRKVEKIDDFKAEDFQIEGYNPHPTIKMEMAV

Nc1ncn([C@H]2C[C@H](O)[C@@H](CO)O2)c(=O)n1 [decitabine, 5-Aza-deoxycytidine]
EC50: 6.87e-08 M
